In the supplement of paper PMC12463676, “Small-molecule dissolution of stress granules by redox modulation benefits ALS models” (Nature Chemical Biology, 2025):

Experiments:
[1] = compound: NC(=O)CCCCC1CCSS1 [lipoamide]; test: thermal stability z-score vs DMSO; higher = more thermally stabilized by treatment; conditions: HeLa, lipoamide concentration 100 µM
Procedure: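 Cellular thermal proteome profiling in HeLa cells. Cells were treated with 100 µM lipoamide for 1 h, with or without 1 mM arsenate for a further 1 h, then heated to ten temperatures (37-66.3 °C), and soluble protein was quantified by TMT mass spectrometry relative to 0.1% DMSO controls. The thermal stability score (sum of log2 fold changes minus the abundance score) was transformed to a z-score; mean of n = 3 experiments.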

[2] = compound: O=[As]([O-])(O)O.[K+] [potassium arsenate]; test: as above; conditions: HeLa; arsenate concentration 1 mM
Procedure: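 Cellular thermal proteome profiling in HeLa cells treated with 1 mM arsenate for 1 h (DMSO pretreatment), heated to ten temperatures (37-66.3 °C). Soluble protein was quantified by TMT mass spectrometry relative to DMSO controls; the thermal stability score was transformed to a z-score; mean of n = 3 experiments.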

[3] = arsenate co-treatment: 1 mM arsenate 1 h
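Also: each temperature applied for 3 min, abundance score taken as mean log2 fold change at the two lowest temperatures, z-score obtained by mean subtraction and division by SD.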

Chain of UniProt Q9H814 (Q9H814 whole entry): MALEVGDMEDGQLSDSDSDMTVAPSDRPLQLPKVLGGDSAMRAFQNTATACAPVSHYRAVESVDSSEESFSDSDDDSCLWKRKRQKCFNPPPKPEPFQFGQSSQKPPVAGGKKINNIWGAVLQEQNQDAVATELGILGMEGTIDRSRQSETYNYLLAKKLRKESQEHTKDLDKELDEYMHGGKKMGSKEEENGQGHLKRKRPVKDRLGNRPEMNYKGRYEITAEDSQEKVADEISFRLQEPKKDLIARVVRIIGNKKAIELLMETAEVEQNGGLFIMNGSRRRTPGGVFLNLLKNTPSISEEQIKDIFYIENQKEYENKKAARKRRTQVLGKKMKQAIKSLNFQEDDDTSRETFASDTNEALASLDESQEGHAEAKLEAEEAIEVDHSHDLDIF
Chain of UniProt Q9NQP4 (Q9NQP4 whole entry): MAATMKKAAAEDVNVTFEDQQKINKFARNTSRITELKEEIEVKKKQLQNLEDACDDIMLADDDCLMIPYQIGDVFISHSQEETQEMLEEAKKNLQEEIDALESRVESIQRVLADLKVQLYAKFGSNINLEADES
Chain of UniProt Q93100 (Q93100 whole entry): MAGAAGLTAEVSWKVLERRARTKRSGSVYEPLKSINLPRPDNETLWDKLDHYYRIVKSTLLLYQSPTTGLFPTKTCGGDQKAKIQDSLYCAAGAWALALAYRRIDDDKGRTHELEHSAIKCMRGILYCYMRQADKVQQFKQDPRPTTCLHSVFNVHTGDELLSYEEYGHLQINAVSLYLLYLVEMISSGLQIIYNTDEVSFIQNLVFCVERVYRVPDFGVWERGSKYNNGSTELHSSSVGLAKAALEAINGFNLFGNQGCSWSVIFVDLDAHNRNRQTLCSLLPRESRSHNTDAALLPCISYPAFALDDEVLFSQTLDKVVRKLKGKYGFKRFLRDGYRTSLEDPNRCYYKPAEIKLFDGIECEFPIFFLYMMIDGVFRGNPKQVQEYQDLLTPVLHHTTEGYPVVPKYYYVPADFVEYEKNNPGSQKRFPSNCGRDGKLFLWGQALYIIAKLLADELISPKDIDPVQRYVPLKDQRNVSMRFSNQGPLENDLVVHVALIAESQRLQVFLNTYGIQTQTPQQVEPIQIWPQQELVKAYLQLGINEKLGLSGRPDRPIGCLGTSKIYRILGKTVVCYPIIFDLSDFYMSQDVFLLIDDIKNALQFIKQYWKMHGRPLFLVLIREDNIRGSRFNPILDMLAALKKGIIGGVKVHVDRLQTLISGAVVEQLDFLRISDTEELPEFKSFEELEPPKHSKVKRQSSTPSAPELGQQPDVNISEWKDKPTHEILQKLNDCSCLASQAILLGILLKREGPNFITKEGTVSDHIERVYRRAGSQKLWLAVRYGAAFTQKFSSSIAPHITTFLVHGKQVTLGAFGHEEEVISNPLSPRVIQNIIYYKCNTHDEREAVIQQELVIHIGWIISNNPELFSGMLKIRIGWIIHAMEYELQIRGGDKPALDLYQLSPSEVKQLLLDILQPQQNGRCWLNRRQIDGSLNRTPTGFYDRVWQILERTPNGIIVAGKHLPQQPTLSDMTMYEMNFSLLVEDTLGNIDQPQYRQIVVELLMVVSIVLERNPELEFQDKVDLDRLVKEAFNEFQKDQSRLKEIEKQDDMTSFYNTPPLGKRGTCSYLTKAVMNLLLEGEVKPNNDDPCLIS
Chain of UniProt O60346 (O60346 whole entry): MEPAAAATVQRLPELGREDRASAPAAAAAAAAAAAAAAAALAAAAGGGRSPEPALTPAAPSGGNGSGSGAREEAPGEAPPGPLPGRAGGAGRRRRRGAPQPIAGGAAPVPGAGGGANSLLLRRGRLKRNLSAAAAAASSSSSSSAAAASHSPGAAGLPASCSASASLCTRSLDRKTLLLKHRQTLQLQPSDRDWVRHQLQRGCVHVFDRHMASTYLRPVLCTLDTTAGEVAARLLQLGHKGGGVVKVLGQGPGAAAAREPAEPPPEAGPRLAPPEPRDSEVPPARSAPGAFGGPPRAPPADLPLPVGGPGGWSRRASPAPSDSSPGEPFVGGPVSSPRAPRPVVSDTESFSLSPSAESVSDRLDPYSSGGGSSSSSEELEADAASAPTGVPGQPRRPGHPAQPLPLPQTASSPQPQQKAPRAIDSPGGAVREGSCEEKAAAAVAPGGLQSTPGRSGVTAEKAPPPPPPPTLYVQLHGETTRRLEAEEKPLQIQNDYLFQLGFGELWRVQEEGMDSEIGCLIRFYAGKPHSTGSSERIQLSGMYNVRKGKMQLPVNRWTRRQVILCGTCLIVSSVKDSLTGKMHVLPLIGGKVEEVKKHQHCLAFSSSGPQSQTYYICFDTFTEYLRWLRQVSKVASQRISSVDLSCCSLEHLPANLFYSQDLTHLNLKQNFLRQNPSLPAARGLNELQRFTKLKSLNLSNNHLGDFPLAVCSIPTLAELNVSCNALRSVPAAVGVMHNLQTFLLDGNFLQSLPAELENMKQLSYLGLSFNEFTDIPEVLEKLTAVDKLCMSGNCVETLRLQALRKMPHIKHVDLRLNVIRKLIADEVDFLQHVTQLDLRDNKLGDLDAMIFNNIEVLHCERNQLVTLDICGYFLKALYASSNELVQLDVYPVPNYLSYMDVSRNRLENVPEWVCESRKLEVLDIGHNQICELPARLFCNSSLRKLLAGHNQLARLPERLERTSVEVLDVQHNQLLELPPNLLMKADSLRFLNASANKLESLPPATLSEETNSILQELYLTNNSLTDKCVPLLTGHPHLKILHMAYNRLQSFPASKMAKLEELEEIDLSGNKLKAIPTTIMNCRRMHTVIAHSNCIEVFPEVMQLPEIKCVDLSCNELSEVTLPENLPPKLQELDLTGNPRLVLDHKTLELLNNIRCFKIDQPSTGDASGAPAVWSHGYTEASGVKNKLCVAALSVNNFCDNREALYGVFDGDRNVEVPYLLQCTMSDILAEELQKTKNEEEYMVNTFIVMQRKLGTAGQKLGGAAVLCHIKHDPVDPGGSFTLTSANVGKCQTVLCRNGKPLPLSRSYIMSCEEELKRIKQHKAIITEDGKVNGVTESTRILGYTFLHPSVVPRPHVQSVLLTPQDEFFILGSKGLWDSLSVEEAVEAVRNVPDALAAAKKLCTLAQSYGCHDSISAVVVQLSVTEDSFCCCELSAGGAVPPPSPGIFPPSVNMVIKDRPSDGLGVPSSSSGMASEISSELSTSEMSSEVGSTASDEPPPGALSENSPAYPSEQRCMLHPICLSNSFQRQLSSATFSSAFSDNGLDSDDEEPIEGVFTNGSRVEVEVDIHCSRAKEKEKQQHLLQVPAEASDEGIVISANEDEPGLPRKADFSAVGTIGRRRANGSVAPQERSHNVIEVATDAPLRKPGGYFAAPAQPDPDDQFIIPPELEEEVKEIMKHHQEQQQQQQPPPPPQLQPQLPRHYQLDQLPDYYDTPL
Chain of UniProt Q9BUL5 (Q9BUL5 whole entry): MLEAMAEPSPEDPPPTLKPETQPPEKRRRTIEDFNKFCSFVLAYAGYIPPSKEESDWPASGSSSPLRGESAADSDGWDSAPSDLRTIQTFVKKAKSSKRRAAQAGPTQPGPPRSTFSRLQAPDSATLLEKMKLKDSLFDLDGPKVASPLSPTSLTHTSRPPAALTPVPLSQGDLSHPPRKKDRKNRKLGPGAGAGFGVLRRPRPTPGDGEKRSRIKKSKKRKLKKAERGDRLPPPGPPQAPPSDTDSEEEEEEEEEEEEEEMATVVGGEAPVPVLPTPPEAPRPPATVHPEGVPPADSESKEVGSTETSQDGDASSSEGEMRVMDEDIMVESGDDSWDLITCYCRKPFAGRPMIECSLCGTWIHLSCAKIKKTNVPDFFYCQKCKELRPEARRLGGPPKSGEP
Chain of UniProt Q8IZ21 (Q8IZ21 whole entry): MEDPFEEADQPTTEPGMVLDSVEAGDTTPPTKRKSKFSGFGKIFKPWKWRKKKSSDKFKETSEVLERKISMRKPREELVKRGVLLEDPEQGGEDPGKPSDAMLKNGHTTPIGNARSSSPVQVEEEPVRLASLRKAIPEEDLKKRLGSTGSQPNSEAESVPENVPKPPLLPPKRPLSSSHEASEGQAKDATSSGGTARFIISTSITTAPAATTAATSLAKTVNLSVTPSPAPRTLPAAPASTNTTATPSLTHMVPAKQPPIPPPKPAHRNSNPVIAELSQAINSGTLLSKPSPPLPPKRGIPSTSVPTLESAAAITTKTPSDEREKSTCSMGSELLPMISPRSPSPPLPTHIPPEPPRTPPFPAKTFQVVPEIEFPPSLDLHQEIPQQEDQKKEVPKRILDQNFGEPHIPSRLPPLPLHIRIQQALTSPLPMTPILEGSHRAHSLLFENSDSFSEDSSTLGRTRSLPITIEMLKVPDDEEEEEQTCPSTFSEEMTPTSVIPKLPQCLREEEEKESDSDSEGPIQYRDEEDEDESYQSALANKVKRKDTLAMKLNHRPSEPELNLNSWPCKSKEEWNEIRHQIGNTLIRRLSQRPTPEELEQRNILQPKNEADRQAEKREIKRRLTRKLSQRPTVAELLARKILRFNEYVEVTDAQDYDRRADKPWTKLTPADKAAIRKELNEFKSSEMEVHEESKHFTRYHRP
Chain of UniProt Q7RTV0 (Q7RTV0 whole entry, looked up): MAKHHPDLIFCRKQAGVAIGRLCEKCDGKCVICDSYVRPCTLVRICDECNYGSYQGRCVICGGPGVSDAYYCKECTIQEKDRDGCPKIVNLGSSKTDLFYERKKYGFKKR
Chain of UniProt O15212 (O15212 whole entry): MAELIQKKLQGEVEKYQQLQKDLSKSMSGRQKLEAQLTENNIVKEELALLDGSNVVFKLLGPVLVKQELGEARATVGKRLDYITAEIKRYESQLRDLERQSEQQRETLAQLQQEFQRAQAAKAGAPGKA
Chain of UniProt Q96HS1 (Q96HS1 whole entry): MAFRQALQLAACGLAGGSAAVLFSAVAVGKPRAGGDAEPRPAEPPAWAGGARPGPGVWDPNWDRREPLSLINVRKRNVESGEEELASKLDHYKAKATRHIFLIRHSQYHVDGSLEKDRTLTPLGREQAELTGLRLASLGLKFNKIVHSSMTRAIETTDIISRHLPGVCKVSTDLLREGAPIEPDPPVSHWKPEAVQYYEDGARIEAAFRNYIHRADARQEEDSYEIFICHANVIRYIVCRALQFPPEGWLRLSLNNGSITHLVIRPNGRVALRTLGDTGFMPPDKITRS

Row | Target | thermal stability z-score [1, 3] | thermal stability z-score ([1]; arsenate co-treatment: none) | thermal stability z-score [2]
1 | PEPD (UniProt P12955) | 0.359 | 0.112 | -0.732
2 | PER1 (UniProt O15534) | 0.107 | -0.119 | -0.023
3 | PES1 (UniProt O00541) | -0.108 | 0.121 | -0.721
4 | PEX1 (UniProt O43933) | -0.254 | -0.723 | -0.382
5 | PEX3 (UniProt P56589) | -0.415 | -0.151 | -0.285
6 | PEX5 (UniProt P50542) | -0.624 | -0.706 | 0.137
7 | PEX6 (UniProt Q13608) | 0.132 | 0.339 | 0.938
8 | PEX11B (UniProt O96011) | -0.443 | -0.349 | -0.497
9 | PEX13 (UniProt Q92968) | 0.444 | 0.834 | 0.284
10 | PEX14 (UniProt O75381) | -0.54 | -0.596 | -0.269
11 | PEX16 (UniProt Q9Y5Y5) | -1.58 | -0.719 | -0.441
12 | PEX19 (UniProt P40855) | 1.96 | 1.51 | 1.13
13 | PFAS (UniProt O15067) | -0.279 | 0.208 | -1.25
14 | PFDN1 (UniProt O60925) | 1.42 | 1.53 | 0.744
15 | PFDN2 (UniProt Q9UHV9) | 0.967 | 1.21 | 0.132
16 | PFDN4 (UniProt Q9NQP4) | 0.286 | 0.37 | -0.445
17 | PFDN5 (UniProt Q99471) | 1.81 | 1.27 | 1.22
18 | PFDN6 (UniProt O15212) | 1.95 | 2.18 | 1.42
19 | PFKFB2 (UniProt O60825) | 0.137 | 0.1 | -0.631
20 | PFKFB3 (UniProt Q16875) | -0.179 | -0.149 | 0.00649
21 | PFKL (UniProt P17858) | 0.344 | 0.367 | 0.476
22 | PFKM (UniProt P08237) | 0.24 | 0.235 | -0.134
23 | PFKP (UniProt Q01813) | 0.365 | 0.542 | 0.0448
24 | PGAM1 (UniProt P18669) | -0.0445 | 0.244 | -0.0878

Row | Target | thermal stability z-score [1, 3] | thermal stability z-score ([1]; arsenate co-treatment: none) | thermal stability z-score [2]
25 | PGAM5 (UniProt Q96HS1) | 0.0875 | 0.709 | 0.701
26 | PGD (UniProt P52209) | 0.318 | 0.403 | 0.259
27 | PGGT1B (UniProt P53609) | -0.242 | 0.0735 | 0.268
28 | PGK1 (UniProt P00558) | 0.239 | 0.256 | -0.469
29 | PGLS (UniProt O95336) | 0.924 | -0.683 | -1.3
30 | PGM1 (UniProt P36871) | -0.181 | -0.205 | -0.103
31 | PGM2 (UniProt Q96G03) | -0.0134 | -0.155 | -0.24
32 | PGM2L1 (UniProt Q6PCE3) | 0.405 | 0.129 | 0.314
33 | PGM3 (UniProt O95394) | 0.0643 | -0.0248 | 0.188
34 | PGP (UniProt A6NDG6) | 0.339 | -0.0409 | -0.245
35 | PGRMC1 (UniProt O00264) | 0.421 | 0.452 | 0.982
36 | PGRMC2 (UniProt O15173) | 0.682 | 0.466 | 0.479
37 | PGS1 (UniProt Q32NB8) | 0.522 | 0.683 | -0.266
38 | PHACTR2 (UniProt O75167) | 0.56 | -0.408 | -0.387
39 | PHACTR4 (UniProt Q8IZ21) | 0.747 | 0.22 | -0.282
40 | PHAX (UniProt Q9H814) | 0.329 | 0.358 | 0.321
41 | PHB2 (UniProt Q99623) | 0.27 | 0.289 | 0.108
42 | PHB (UniProt P35232) | 0.394 | 0.55 | 0.222
43 | PHF3 (UniProt Q92576) | 1.05 | 0.76 | -0.848
44 | PHF5A (UniProt Q7RTV0) | 0.703 | 0.339 | -5.28
45 | PHF6 (UniProt Q8IWS0) | -0.33 | -0.552 | -3.52
46 | PHF10 (UniProt Q8WUB8) | -0.191 | -0.061 | -0.359
47 | PHF14 (UniProt O94880) | -0.247 | 0.314 | -0.242
48 | PHF23 (UniProt Q9BUL5) | 0.843 | 0.376 | -3.81

Row | Target | thermal stability z-score [1, 3] | thermal stability z-score ([1]; arsenate co-treatment: none) | thermal stability z-score [2]
49 | PHGDH (UniProt O43175) | 1.08 | 0.761 | -2.42
50 | PHKA1 (UniProt P46020) | -0.125 | -0.051 | 0.0887
51 | PHKA2 (UniProt P46019) | -0.174 | 0.096 | -0.0062
52 | PHKB (UniProt Q93100) | 0.125 | 0.135 | 0.278
53 | PHKG2 (UniProt P15735) | 0.926 | 1.04 | 0.714
54 | PHLDA2 (UniProt Q53GA4) | -0.116 | 0.13 | 1.41
55 | PHLDB1 (UniProt Q86UU1) | -0.559 | 0.362 | 0.2
56 | PHLDB2 (UniProt Q86SQ0) | -1.07 | -0.89 | -0.277
57 | PHLPP1 (UniProt O60346) | 0.138 | -0.144 | -0.061
58 | PHPT1 (UniProt Q9NRX4) | 0.922 | 0.553 | -1.95
59 | PHYH (UniProt O14832) | 0.0197 | -0.12 | -0.196
60 | PHYHD1 (UniProt Q5SRE7) | -0.0705 | 0.173 | 0.196
61 | PI4K2A (UniProt Q9BTU6) | 0.0172 | -0.189 | -0.0745
62 | PI4K2B (UniProt Q8TCG2) | -0.541 | 0.209 | -0.451
63 | PI4KA (UniProt P42356) | -0.343 | -0.333 | -0.732
64 | PI4KB (UniProt Q9UBF8) | -0.62 | 0.386 | 0.692
65 | PIAS4 (UniProt Q8N2W9) | 0.144 | 0.2 | 0.136
66 | PIBF1 (UniProt Q8WXW3) | -0.108 | -0.184 | -0.0727
67 | PICALM (UniProt Q13492) | 0.107 | -0.16 | -0.0231
68 | PIEZO1 (UniProt Q92508) | -0.342 | 0.0689 | 0.19
69 | PIGA (UniProt P37287) | 0.843 | 0.283 | 0.147
70 | PIGG (UniProt Q5H8A4) | -0.479 | -0.752 | 0.14
71 | PIGK (UniProt Q92643) | -1.32 | -1.34 | -0.123
72 | PIGN (UniProt O95427) | 0.0724 | -0.0621 | 0.41
